Tested on: yeast genes (level of expressed mRNA)
Experiment: DNA chip analysis of expressed mRNA of yeast genes after 2 h culture with a toxic chemical substance
Type: cell-based, Saccharomyces cerevisiae S288C
Conditions: for The level of expressed mRNA in the presence of chemical substance/ (ratio to absence of chemical substance): stress protein genes, DNA chip
How it was run: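 S. cerevisiae S288C in YPD at 25 °C was exposed at log phase for 2 h to a growth-inhibiting, non-lethal concentration of the chemical. Poly(A) mRNA was reverse-transcribed with Cy3- or Cy5-dUTP and hybridized to a whole-genome yeast DNA chip (65 °C, >12 h). Values are fluorescence ratios versus untreated cells.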

C[S+](C)[O-] [(15), dimethylsulfoxide]
The level of expressed mRNA in the presence of chemical substance/The level of expressed mRNA in the absence of chemical substance (yeast gene YJL073W): 2.6 | The level of expressed mRNA in the presence of chemical substance/The level of expressed mRNA in the absence of chemical substance (yeast gene YJL089W): 6.4 | The level of expressed mRNA in the presence of chemical substance/ (ratio to absence), gene YJL096W (yeast gene YJL096W, mitochondria-located protein genes, 2 h culture with chemical): 1.0 | The level of expressed mRNA in the presence of chemical substance/The level of expressed mRNA in the absence of chemical substance (yeast gene YJL116C): 1.0 | The level of expressed mRNA in the presence of chemical substance/ (ratio to absence of chemical substance) (yeast gene YJL158C): 1.7 | The level of expressed mRNA in the presence of chemical substance/ (in its absence), gene YJL167W (yeast gene YJL167W, ratio of DNA chip fluorescence intensity to that without chemical substance): 1.6 | The level of expressed mRNA in the presence of chemical substance/ (ratio to absence), gene YJL180C (yeast gene YJL180C, mitochondria-located protein genes, 2 h culture with chemical): 0.6 | The level of expressed mRNA in the presence of chemical substance/ (in its absence), gene YJL216C (yeast gene YJL216C, ratio of DNA chip fluorescence intensity to that without chemical substance): 1.2 | The level of expressed mRNA in the presence of chemical substance/The level of expressed mRNA in the absence of chemical substance (yeast gene YJR004C): 3.2 | The level of expressed mRNA in the presence of chemical substance/The level of expressed mRNA in the absence of chemical substance (yeast gene YJR086W): 2.0 | The level of expressed mRNA in the presence of chemical substance/ (ratio to absence of chemical substance) (yeast gene YJR090C): 1.6 | The level of expressed mRNA in the presence of chemical substance/The level of expressed mRNA in the absence of chemical substance (yeast gene YKL008C): 1.3 | The level of expressed mRNA in the presence of chemical substance/The level of expressed mRNA in the absence of chemical substance (yeast gene YKL013C): 1.2 | The level of expressed mRNA in the presence of chemical substance/The level of expressed mRNA in the absence of chemical substance (yeast gene YKL039W): 3.1 | The level of expressed mRNA in the presence of chemical substance/The level of expressed mRNA in the absence of chemical substance (yeast gene YKL041W): 1.0 | The level of expressed mRNA in the presence of chemical substance/The level of expressed mRNA in the absence of chemical substance (yeast gene YKL096W): 2.3 | The level of expressed mRNA in the presence of chemical substance/The level of expressed mRNA in the absence of chemical substance (yeast gene YKL139W): 1.0 | The level of expressed mRNA in the presence of chemical substance/ (ratio to absence of chemical substance) (yeast gene YKL164C): 1.2 | The level of expressed mRNA in the presence of chemical substance/The level of expressed mRNA in the absence of chemical substance (yeast gene YKL165C): 2.1 | The level of expressed mRNA in the presence of chemical substance/The level of expressed mRNA in the absence of chemical substance (yeast gene YKL193C): 1.2 | The level of expressed mRNA in the presence of chemical substance/ (in its absence), gene YKR009C (yeast gene YKR009C, ratio of DNA chip fluorescence intensity to that without chemical substance): 1.0 | The level of expressed mRNA in the presence of chemical substance/The level of expressed mRNA in the absence of chemical substance (yeast gene YKR014C): 1.4 | The level of expressed mRNA in the presence of chemical substance/ (in its absence), gene YKR034W (yeast gene YKR034W, ratio of DNA chip fluorescence intensity to that without chemical substance): 1.7 | The level of expressed mRNA in the presence of chemical substance/ (ratio to absence of chemical substance) (yeast gene YKR053C): 0.3 | The level of expressed mRNA in the presence of chemical substance/ in its absence, gene YKR058W (yeast gene YKR058W, energy system protein genes, 2 h culture with the chemical, ratio to control without chemical): 0.5 | The level of expressed mRNA in the presence of chemical substance/ (in its absence), gene YLR006C (yeast gene YLR006C, ratio of DNA chip fluorescence intensity to that without chemical substance): 0.9 | The level of expressed mRNA in the presence of chemical substance/ (ratio to absence of chemical substance) (yeast gene YLR006C): 0.9 | The level of expressed mRNA in the presence of chemical substance/The level of expressed mRNA in the absence of chemical substance (yeast gene YLR093C): 0.9 | The level of expressed mRNA in the presence of chemical substance/The level of expressed mRNA in the absence of chemical substance (yeast gene YLR120C): 2.7 | The level of expressed mRNA in the presence of chemical substance/The level of expressed mRNA in the absence of chemical substance (yeast gene YLR136C): 2.1 | The level of expressed mRNA in the presence of chemical substance/The level of expressed mRNA in the absence of chemical substance (yeast gene YLR178C): 2.3 | The level of expressed mRNA in the presence of chemical substance/The level of expressed mRNA in the absence of chemical substance (yeast gene YLR250W): 2.6 | The level of expressed mRNA in the presence of chemical substance/ in its absence, gene YLR295C (yeast gene YLR295C, energy system protein genes, 2 h culture with the chemical, ratio to control without chemical): 0.5 | The level of expressed mRNA in the presence of chemical substance/ (ratio to absence), gene YLR295C (yeast gene YLR295C, mitochondria-located protein genes, 2 h culture with chemical): 0.5 | The level of expressed mRNA in the presence of chemical substance/The level of expressed mRNA in the absence of chemical substance (yeast gene YLR327C): 0.8 | The level of expressed mRNA in the presence of chemical substance/ (in its absence), gene YLR351C (yeast gene YLR351C, ratio of DNA chip fluorescence intensity to that without chemical substance): 1.2 | The level of expressed mRNA in the presence of chemical substance/The level of expressed mRNA in the absence of chemical substance (yeast gene YLR356W): 2.8 | The level of expressed mRNA in the presence of chemical substance/The level of expressed mRNA in the absence of chemical substance (yeast gene YLR362W): 1.3 | The level of expressed mRNA in the presence of chemical substance/ (in its absence), gene YLR375W (yeast gene YLR375W, ratio of DNA chip fluorescence intensity to that without chemical substance): 1.3 | The level of expressed mRNA in the presence of chemical substance/The level of expressed mRNA in the absence of chemical substance (yeast gene YLR391W): 3.9 | The level of expressed mRNA in the presence of chemical substance/The level of expressed mRNA in the absence of chemical substance (yeast gene YLR429W): 1.5 | The level of expressed mRNA in the presence of chemical substance/ in its absence, gene YML129C (yeast gene YML129C, energy system protein genes, 2 h culture with the chemical, ratio to control without chemical): 1.1 | The level of expressed mRNA in the presence of chemical substance/ (ratio to absence), gene YML129C (yeast gene YML129C, mitochondria-located protein genes, 2 h culture with chemical): 1.1 | The level of expressed mRNA in the presence of chemical substance/The level of expressed mRNA in the absence of chemical substance (yeast gene YMR004W): 1.3 | The level of expressed mRNA in the presence of chemical substance/ (ratio to absence), gene YMR023C (yeast gene YMR023C, mitochondria-located protein genes, 2 h culture with chemical): 0.7 | The level of expressed mRNA in the presence of chemical substance/The level of expressed mRNA in the absence of chemical substance (yeast gene YMR094W): 6.6 | The level of expressed mRNA in the presence of chemical substance/The level of expressed mRNA in the absence of chemical substance (yeast gene YMR104C): 2.5 | The level of expressed mRNA in the presence of chemical substance/ (ratio to absence of chemical substance) (yeast gene YMR186W): 1.3 | The level of expressed mRNA in the presence of chemical substance/The level of expressed mRNA in the absence of chemical substance (yeast gene YMR219W): 1.7 | The level of expressed mRNA in the presence of chemical substance/The level of expressed mRNA in the absence of chemical substance (yeast gene YMR226C): 2.0 | The level of expressed mRNA in the presence of chemical substance/ in its absence, gene YMR267W (yeast gene YMR267W, energy system protein genes, 2 h culture with the chemical, ratio to control without chemical): 0.9 | The level of expressed mRNA in the presence of chemical substance/ (ratio to absence), gene YMR267W (yeast gene YMR267W, mitochondria-located protein genes, 2 h culture with chemical): 0.9 | The level of expressed mRNA in the presence of chemical substance/ in its absence, gene YMR267W (yeast gene YMR267W, ratio of DNA chip fluorescence intensity to that without chemical substance): 0.9 | The level of expressed mRNA in the presence of chemical substance/The level of expressed mRNA in the absence of chemical substance (yeast gene YMR275C): 1.7 | The level of expressed mRNA in the presence of chemical substance/The level of expressed mRNA in the absence of chemical substance (yeast gene YMR276W): 3.3 | The level of expressed mRNA in the presence of chemical substance/ (in its absence), gene YMR278W (yeast gene YMR278W, ratio of DNA chip fluorescence intensity to that without chemical substance): 1.8 | The level of expressed mRNA in the presence of chemical substance/ (in its absence), gene YMR293C (yeast gene YMR293C, ratio of DNA chip fluorescence intensity to that without chemical substance): 0.7
